Test results from patent US6833377B2, “Composition and method for potentiating drugs” (priority 2001, dated 2004).
Values joined by “and” are separate entries in the source; they are usually repeats but may differ in a detail not shown here. Equal values may be shown once. Read-outs that look alike come from different tables or passages of the source.

System: pentylenetetrazole seizures
Details: diazepam alone, pentylenetetrazole 70 mg/kg
Experimental: For these studies, solutions of the composition of the invention were used, which. were prepared using distilled water immediately before administration. The solutions were administered either orally (IG), by a rigid metal probe into the cardiac section of the stomach at a total amount of 0.8 ml, or intramuscularly (IM) at an amount of 0.2 ml, 30 min before testing.
Anticonvulsive effects of drugs and their compositions was studied on the model of pentetrazole seizures [Parsons C. G . Quack G., Bresink I., Baran L., Przegalinski F., Kostowski. W., Krzascik P., Hartmann. S., Danysz W. Neuropharmacology (1995) 34(10):1239-1258).
To estimate the potentiation of diazepam effect, its minimal effective dose in the composition preventing clonico-tonic and clonic seizures in 80% of rats was determined.

## CN1C(=O)CN=C(c2ccccc2)c2cc(Cl)ccc21 [Diazepam]
IG
  Minimal dose of diazepam preventing clonico-tonic pentylenetetrazol seizures in 80% of rats: 2.5 mg/kg and 2.5 ± 0.3 mg/kg
IM
  Minimal dose of diazepam preventing clonico-tonic pentylenetetrazol seizures in 80% of rats: 6.7 mg/kg and 6.7 ± 0.7 mg/kg
